Experimental data published in EP0369079A1, “Pharmaceutical compositions with anti-cancer activity and method for the treatment of cancer” (priority 1988, dated 1990).
Counter-ions that a name gives are not always drawn. Like-named read-outs stand apart in the source and are kept apart here.

How the values were obtained:
[1] = L-ascorbic acid in combination with other aromatic aldehydes or derivatives (synergy check); assay type: cell-based; settings: used in combination with L-ascorbic acid
NHIK 3025 cells [2] = experiment: Rate of protein synthesis ([3H]valine incorporation related to [14C] protein label); assay type: cell-based, Human; settings: Table 6, control 4.5
Description: Human cells of the established line NHIK 3025, originating from a cervical carcinoma in situ (Nordbye, K., and Oftebro, R. Exp. Cell Res., 58:458, l969), Oftebro, R., and Nordbye, K., Exp. Cell Res., 58:459-460, 1969) were cultivated in Medium E2a (Puck, T.T. et al., J. Exp. Med., 106: 145-165, 1957) supplemented with 20% human and 10% horse serum (Grand Island Biological Co.). The cells are grown as monolayers in tissue culture flasks. […] The cells were kept in continuous exponential growth by frequent reculturing, i.e. every second and third day.
The rate of protein synthesis was calculated as described in Rønning, ø. W. et al., J. Cell Physiol., 107: 47-57, 1981. Briefly, cellular protein was labelled to saturation during a 2-day preincubation with (¹⁴C)valine of constant specific radioactivity (0.5 Ci/mol) prior to the experiment. This was achieved by using a high concentration of valine so that the dilution of (¹⁴C) valine by intracellular valine and by proteolytically generated valine will be negligible (Rønning, ø. W., et al. Exp. Cell Res. 123:63-72, 1979), thus keeping the specific radioactivity at a constant level. The rate of protein synthesis was calculated from the incorporation of (³H) valine of constant specific activity. The incorporation measurements were related to the total of (¹⁴C) radioacitivty in protein at the beginning of the respective measurement periods and expressed as the percentage per hour (Rønning, ø. W. et al, J. Cell, Physiol. 107:47-57, 1981).
From earlier studies, it is known that determination of protein synthesis inhibition is a useful measure of anti-cancer activity. In the present study we have tested the protein synthesis inhibition as induced by both BASS and Asc alone, and by the two active agents in simultaneous combination. The experiment also included samples treated similarly, but where BASS-d₁ was used instead of BASS.

NHIK 3025 cells [3] = experiment: Cell survival (colony formation) after drug treatment; assay type: cell-based, Human; settings: for Surviving fraction: 1440 min
Description: The cells are grown as monolayers in tissue culture flasks. […] The cells were kept in continuous exponential growth by frequent reculturing, i.e. every second and third day.
For measurment of cell survival, appropriate numbers of cells were seeded in plastic Petri dishes (⌀ = 5 cm). The number of cells seeded into each dish was adjusted such that the number of surviving cells would be approximately 150 per dish. While exponentially growing (asynchronous) cells were trypsinized before seeding, synchronized cells were seeded immediately after selection. […] After the desired time of treatment, the drug-containing medium was removed, and fresh medium was added. The dishes were rinsed once with the same medium as was to be added on addition or removal of drug. After 10 to 12 days at 37°C in a CO₂ incubator, the cells were fixed in ethanol and stained with methylene blue before the colonies were counted.
The cytotoxic effect of BASS and of ascorbic acid (Asc) used either alone or in simultaneous combination was measured on asynchronous, exponentially growing NHIK 3025 cells.

[4] = 1.0 mM BASS or BASS-d1 alone (0 mM Asc), per cent of the total cellular protein per hour
[5] = 3.2 mM BASS or BASS-d1 alone (0 mM Asc)
[6] = Homo sapiens, NHIK3025, 24 h, Table 4, 24 hours, 1.0 mM BASS or BASS-d1 alone (0 mM Asc), read-out: Surviving fraction

Q: With OC1O[C@@H]2COC(c3ccccc3)O[C@H]2[C@H](O)[C@H]1O (stereo partly drawn) [4,6-O-benzylidene glucose] as the compound, how does the synergistic effects [1] read?
A: without observing any synergistic effects

Q: For O=C1O[C@H]([C@@H](O)CO)C(O)=C1O [Asc, L-ascorbic acid, reference compound], which “rate of protein synthesis” value (NHIK 3025 cells [2]; 1.0 mM Asc alone) is on record?
A: 2.96±0.04 %/h

Q: And the “rate of protein synthesis” value (NHIK 3025 cells [2]; 3.2 mM Asc alone)?
A: 1.5±0.2 %/h

Q: What about the viability at 1600 µM (NHIK 3025 cells [3]; Homo sapiens, NHIK3025, 4 h, Table 3, 4 hours, 1.6 mM Asc alone, read-out: Surviving fraction) of the same compound?
A: 91 ± 1%

Q: What about the viability at 3200 µM (NHIK 3025 cells [3]; Homo sapiens, NHIK3025, 4 h, Table 3, 4 hours, 3.2 mM Asc alone, read-out: Surviving fraction) of the same compound?
A: 27 ± 3%

Q: And the viability at 800 µM (NHIK 3025 cells [3]; Homo sapiens, NHIK3025, 24 h, Table 1, 24 hours, 0.8 mM Asc alone (0 mM BASS), read-out: Surviving fraction)?
A: 91 ± 9%

Q: What about the viability at 1200 µM (NHIK 3025 cells [3]; Homo sapiens, NHIK3025, 24 h, Table 1, 24 hours, 1.2 mM Asc alone (0 mM BASS), read-out: Surviving fraction) of the same compound?
A: 80%

Q: What about the viability at 1600 µM (NHIK 3025 cells [3]; Homo sapiens, NHIK3025, 24 h, Table 1, 24 hours, 1.6 mM Asc alone (0 mM BASS), read-out: Surviving fraction) of the same compound?
A: 61 ± 4%

Q: And the viability at 2400 µM (NHIK 3025 cells [3]; Homo sapiens, NHIK3025, 24 h, Table 1, 24 hours, 2.4 mM Asc alone (0 mM BASS), read-out: Surviving fraction)?
A: 40 ± 3%

Q: What about the viability at 3200 µM (NHIK 3025 cells [3]; Homo sapiens, NHIK3025, 24 h, Table 1, 24 hours, 3.2 mM Asc alone (0 mM BASS), read-out: Surviving fraction) of the same compound?
A: 11 ± 0.8%

Q: What about the viability at 800 µM (NHIK 3025 cells [3]; Homo sapiens, NHIK3025, Table 2 (further experiment, similar to Table 1), 0.8 mM Asc alone, read-out: Surviving fraction) of the same compound?
A: 95 ± 5%

Q: And the viability at 1200 µM (NHIK 3025 cells [3]; Homo sapiens, NHIK3025, Table 2 (further experiment, similar to Table 1), 1.2 mM Asc alone, read-out: Surviving fraction)?
A: 69 ± 2%

Q: What about the viability at 1600 µM (NHIK 3025 cells [3]; Homo sapiens, NHIK3025, Table 2 (further experiment, similar to Table 1), 1.6 mM Asc alone, read-out: Surviving fraction) of the same compound?
A: 54 ± 2%

Q: What about the viability at 2400 µM (NHIK 3025 cells [3]; Homo sapiens, NHIK3025, Table 2 (further experiment, similar to Table 1), 2.4 mM Asc alone, read-out: Surviving fraction) of the same compound?
A: 29 ± 1%

Q: What about the viability at 3200 µM (NHIK 3025 cells [3]; Homo sapiens, NHIK3025, Table 2 (further experiment, similar to Table 1), 3.2 mM Asc alone, read-out: Surviving fraction) of the same compound?
A: 8.7 ± 1%

Q: And the Surviving fraction (NHIK 3025 cells [3]; Table 1, 24 hours, 1.2 mM Asc alone (0 mM BASS), 1200 µM)?
A: 0.80±0.09

Q: Which “rate of protein synthesis” value (NHIK 3025 cells [2]; [4]) does the source give for O=C1O[C@H]([C@@H]2COC(c3ccccc3)O2)C(O)=C1O (stereo partly drawn) [BASS, sodium salt of 5,6-O-benzylidene-L-ascorbic acid] here?
A: 3.06±0.02 %/h

Q: And the “rate of protein synthesis” value (NHIK 3025 cells [2]; [5])?
A: 1.71±0.05 %/h

Q: What about the viability at 1600 µM (NHIK 3025 cells [3]; Homo sapiens, NHIK3025, 4 h, Table 3, 4 hours, 1.6 mM BASS alone, read-out: Surviving fraction) of the same compound?
A: 80 ± 5%

Q: What about the viability at 3200 µM (NHIK 3025 cells [3]; Homo sapiens, NHIK3025, 4 h, Table 3, 4 hours, 3.2 mM BASS alone, read-out: Surviving fraction) of the same compound?
A: 36 ± 3%

Q: And the viability at 1000 µM (NHIK 3025 cells [3]; Homo sapiens, NHIK3025, 24 h, Table 1, 24 hours, 1.0 mM BASS alone (0 mM Asc), read-out: Surviving fraction)?
A: 76%

Q: What about the viability at 1600 µM (NHIK 3025 cells [3]; Homo sapiens, NHIK3025, 24 h, Table 1, 24 hours, 1.6 mM BASS alone (0 mM Asc), read-out: Surviving fraction) of the same compound?
A: 52 ± 2%

Q: And the viability at 3200 µM (NHIK 3025 cells [3]; Homo sapiens, NHIK3025, 24 h, Table 1, 24 hours, 3.2 mM BASS alone (0 mM Asc), read-out: Surviving fraction)?
A: 1.1 ± 0.1%

Q: And the viability at 1000 µM (NHIK 3025 cells [3]; [6])?
A: 62 ± 5%

Q: And the viability at 1600 µM (NHIK 3025 cells [3]; Homo sapiens, NHIK3025, 24 h, read-out: Surviving fraction)?
A: 24 ± 3%

Q: And the viability at 500 µM (NHIK 3025 cells [3]; Homo sapiens, NHIK3025, Table 2 (further experiment, similar to Table 1), 0.5 mM BASS alone, read-out: Surviving fraction)?
A: 91 ± 7%

Q: What about the viability at 1000 µM (NHIK 3025 cells [3]; Homo sapiens, NHIK3025, Table 2 (further experiment, similar to Table 1), 1.0 mM BASS alone, read-out: Surviving fraction) of the same compound?
A: 63 ± 8%

Q: And the viability at 1600 µM (NHIK 3025 cells [3]; Homo sapiens, NHIK3025, Table 2 (further experiment, similar to Table 1), 1.6 mM BASS alone, read-out: Surviving fraction)?
A: 44 ± 3%

Q: And the viability at 3200 µM (NHIK 3025 cells [3]; Homo sapiens, NHIK3025, Table 2 (further experiment, similar to Table 1), 3.2 mM BASS alone, read-out: Surviving fraction)?
A: 3.9 ± 0.4%

Q: And the Surviving fraction (NHIK 3025 cells [3]; Table 1, 24 hours, 1.0 mM BASS alone (0 mM Asc), 1000 µM)?
A: 0.76±0.02

Q: Which “rate of protein synthesis” value (NHIK 3025 cells [2]; [4]) does the source give for [2H]C1(c2ccccc2)OC[C@@H]([C@H]2OC(=O)C(O)=C2O)O1 (stereo partly drawn) [BASS-d₁, sodium salt of 5,6-O-benzylidene-L-ascorbic acid deuterated at the 1-position of the aldehyde group of the benzylidene moiety] here?
A: 3.03±0.16 %/h

Q: What about the “rate of protein synthesis” value (NHIK 3025 cells [2]; [5]) of the same compound?
A: 2.00±0.03 %/h

Q: What about the viability at 1000 µM (NHIK 3025 cells [3]; [6]) of the same compound?
A: 55 ± 5%
